Source: ChEMBL document CHEMBL2203214, “Polyether ionophores-promising bioactive molecules for cancer therapy” (Bioorg Med Chem Lett, 2012)
Converted amounts (≈) assume the structure as drawn. Values belong to the compound of their own block, whether it stands above or below them.

Key:
[1] = Antiproliferative activity against human SCC cells assessed as non-viable cell level; format: functional
[2] = Inhibition of vinblastine binding to human KB-C4 cells; format: functional, cell-based
MDR [3] = test: Inhibition of MDR in human KB-C4 cells assessed as increase of vinblastine accumulation preincubated for 30 mins before vinblastine addition measured after drug washout relative to control; format: cell-based
MDR [4] = test: Inhibition of MDR in human KB-C4 cells assessed as increase of vinblastine accumulation after 1 hr relative to control; format: cell-based
[5] = Cell cycle arrest in human SCC cells assessed as accumulation at G1/G0 phase after 24 hrs relative to control; format: functional, cell-based
[6] = Induction of apoptosis in malignant lymphocyte after 48 hrs; format: functional
[7] = Potentiation of colchicine-induced cytotoxicity in human KB-C4 cells at 1 ug/mL relative to control; format: functional
[8] = Antiproliferative activity against human NCI-H929 cells assessed as growth inhibition at 0.5 uM; format: functional; conditions: read-out: GI
SNU-C1 = test: Antiproliferative activity against human SNU-C1 cells assessed as growth inhibition at 0.5 uM; format: functional; conditions: read-out: GI
[9] = Toxicity in chronic oral dosed mouse after 2 years; format: organism-based; conditions: in vivo
[10] = Toxicity in subchronic oral dosed dog after 3 months; format: organism-based, Canis lupus familiaris; conditions: in vivo
[11] = Toxicity in subchronic oral dosed rat after 3 months; format: organism-based; conditions: in vivo
[12] = Toxicity in chronic oral dosed rat after 2 years; format: organism-based; conditions: in vivo
[13] = Toxicity in […] oral dosed dog after 1 year; format: organism-based, Canis lupus familiaris; conditions: in vivo
[14] = Antiproliferative activity against human VCaP cells; format: functional, cell-based
PC-3 = test: Antiproliferative activity against human PC3 cells after 48 hrs; format: functional, cell-based; conditions: PC-3, 48 h

- IC50 [2]: 0.94 µg/mL (≈ 1.34 µM)
Structure (SMILES): CCC[C@H](O)[C@@]1(CC)C[C@@H](C)[C@](O)([C@]2(C)C[C@H](C)[C@@H]([C@@H](CC)C(=O)[C@@H](C)[C@@H](O)[C@H](C)[C@H]3O[C@@](O)([C@H](CC)C(=O)O)[C@@H](C)[C@H](O)[C@H]3CC)O2)O1 [INOSTAMYCIN]
- Activity [1]: <1%
- fold change (FC) (MDR [3]): 3
- fold change (FC) (MDR [4]): 4
- fold change (FC) [5]: 1.2

Structure (SMILES): C[C@H](CCC(=O)O)C[C@H](C)C[C@H](C)C(=O)/C=C(\O)[C@H](C)C[C@H](C)C/C=C/[C@@H](C)[C@@H](O)[C@@H](C)[C@@H](O)C[C@@H]1CC[C@@](C)([C@H]2CC[C@@](C)([C@@H](C)O)O2)O1 [IONOMYCIN]
- IC50 [6]: 230 nM

Structure (SMILES): CCC(=O)O[C@H]([C@H](C)[C@H]1O[C@@]2(CC[C@@](C)([C@H]3CC[C@@](C)([C@@H]4O[C@@H]([C@H]5O[C@@](O)(CO)[C@H](C)C[C@@H]5C)C[C@@H]4C)O3)O2)C[C@H](O)[C@H]1C)[C@H](C)C(=O)O [LAIDLOMYCIN]
- fold change (FC) [7]: 700

Structure (SMILES): CC[C@@]1([C@@H]2O[C@@H]([C@H]3O[C@@](O)(CO)[C@H](C)C[C@@H]3C)C[C@@H]2C)CC[C@H]([C@]2(C)CC[C@]3(C[C@H](O)[C@@H](C)[C@@H]([C@@H](C)[C@@H](OC)[C@H](C)C(=O)O)O3)O2)O1 [MONENSIN]
- inhibition of growth at 0.5 µM [8]: 50%
- inhibition of growth at 0.5 µM (SNU-C1): 50%
- NOAEL at 2 years [9]: 1.3 mg/kg/day
- NOAEL at 3 months [10]: 5 mg/kg/day
- NOAEL at 3 months [11]: 2 mg/kg
- NOAEL at 2 years [12]: 1.4 mg/kg/day
- NOAEL at 1 year [13]: 1.25 mg/kg/day

Structure (SMILES): CC[C@@H](C(=O)[C@@H](C)[C@@H](O)[C@H](C)[C@@H]1O[C@@H]([C@@H](CC)C(=O)O)CC[C@@H]1C)[C@H]1O[C@]2(C=C[C@@H](O)[C@]3(CC[C@@](C)([C@H]4CC[C@](O)(CC)[C@H](C)O4)O3)O2)[C@H](C)C[C@@H]1C [SALINOMYCIN]
- EC50 [14]: 380 nM
- EC50 (PC-3): > 1000 nM
